This is an account of results in ChEMBL document CHEMBL4622943, “Design, synthesis and biological evaluation of 2-methyl-(1,1'-biphenyl)-pyrimidine conjugates” (Bioorg Med Chem Lett, 2020).

Activity calls are given as the source filed them. The rule behind the calls is not given here.

One series relates to HepG2. Briefly: Inhibition of cell migration in human HepG2 cells incubated for 48 hrs by wound healing assay. The series is classed as functional, cell-based.
A short description of series [1]: Selectivity index, ratio of IC50 for human MRC5 cells to IC50 for human HepG2 cells assessed as cell growth inhibition by CCK8 assay. In kind it is toxicity. The note with it: MRC5 cells versus HepG2 cells, read-out: Ratio IC50. A general note: Formazan colour is commonly taken as a measure of viable cells.
Series [2] can be described thus: Selectivity index, ratio of IC50 for human MRC5 cells to IC50 for human SKOV3 cells assessed as cell growth inhibition by CCK8 assay. The series is classed as toxicity. The note with it: MRC5 cells versus SKOV3 cells, read-out: Ratio IC50.
Series [3] can be described thus: Selectivity index, ratio of IC50 for human MRC5 cells to IC50 for human HT-29 cells assessed as cell growth inhibition by CCK8 assay. In kind it is toxicity. The conditions noted are these: MRC5 cells versus HT-29 cells, read-out: Ratio IC50.
The next series relates to HT-29. In words: Inhibition of cell migration in human HT-29 cells incubated for 48 hrs by wound healing assay. In kind it is functional, cell-based.
A short description of series [4]: Selectivity index, ratio of IC50 for human MRC5 cells to IC50 for human A549 cells assessed as cell growth inhibition by CCK8 assay. In kind it is toxicity. The conditions noted are these: MRC5 cells versus A549 cells, read-out: Ratio IC50.
In series [5] the test system is SK-OV-3. In words: Inhibition of cell migration in human SKOV3 cells incubated for 48 hrs by wound healing assay. The series is classed as functional, cell-based.
Series [6] relates to A549. In words: Inhibition of cell migration in human A549 cells incubated for 48 hrs by wound healing assay. In kind it is functional, cell-based.
The next series concerns MRC5. In words: Cytotoxicity against human MRC5 cells assessed as cell growth inhibition by CCK8 assay. In kind it is cell-based.
A further series concerns NCI-H1299. In words: Antiproliferative activity against human H1299 cells assessed as cell growth inhibition by CCK8 assay. The series is classed as functional, cell-based.
A further series relates to HCC827. In words: Antiproliferative activity against human HCC827 cells assessed as cell growth inhibition by CCK8 assay. In kind it is functional, cell-based.
For another series, the system named is A-375. Briefly: Antiproliferative activity against human A375 cells assessed as cell growth inhibition by CCK8 assay. In kind it is functional, cell-based.
In another series the test system is AGS. Briefly: Antiproliferative activity against human AGS cells assessed as cell growth inhibition by CCK8 assay. The series is classed as functional, cell-based.
Another series concerns MDA-MB-231. Briefly: Antiproliferative activity against human MDA-MB-231 cells assessed as cell growth inhibition by CCK8 assay. The series is classed as functional, cell-based.
Series [7] concerns A549. Briefly: Induction of apoptosis in human A549 cells assessed as live cells at 10 uM by FITC staining based flow cytometry (reference value: 96 to 96.6 %). The series is classed as functional. On the technique in general: Flow cytometry measures light scatter and fluorescence of single cells or particles in a stream.
The test system of series [8] is A549. In words: Induction of apoptosis in human A549 cells assessed as necrotic cells at 10 uM by FITC staining based flow cytometry (reference value: 0.78 to 1.49 %). In kind it is functional.
For series [9], the system named is A549. Briefly: Induction of apoptosis in human A549 cells assessed as early apoptotic cells at 10 uM by FITC staining based flow cytometry (reference value: 0.34 to 0.39 %). The series is classed as functional.
The subject of series [10] is SK-OV-3. In words: Induction of apoptosis in human SKOV3 cells assessed as early apoptotic cells at 5 uM by FITC staining based flow cytometry (reference value: 0.59 to 0.97 %). The series is classed as functional.
Series [11] has as its system A549. Briefly: Induction of apoptosis in human A549 cells assessed as late apoptotic cells at 5 uM by FITC staining based flow cytometry (reference value: 2.12 to 2.33 %). The series is classed as functional.
The subject of series [12] is SK-OV-3. In words: Induction of apoptosis in human SKOV3 cells assessed as necrotic cells at 5 uM by FITC staining based flow cytometry (reference value: 1.74 to 1.93 %). The series is classed as functional.
For series [13], the system named is SK-OV-3. In words: Inhibition of cell migration in human SKOV3 cells at 0.6 uM incubated for 48 hrs by wound healing assay relative to control. The series is classed as functional. The conditions noted are these: SK-OV-3, 48 h.
The subject of series [14] is A549. In words: Induction of apoptosis in human A549 cells assessed as late apoptotic cells at 10 uM by FITC staining based flow cytometry (reference value: 2.12 to 2.33 %). The series is classed as functional.
For series [15], the target named is Programmed cell death protein 1/Programmed cell death 1 ligand 1 (Homo sapiens, UniProt Q15116+Q9NZQ7). In words: Inhibition of PD1 (unknown origin)/PDL1 (unknown origin) protein-protein interaction by HTRF assay. In kind it is protein-complex assay.
In series [16] the test system is A549. In words: Inhibition of cell migration in human A549 cells at 0.6 uM incubated for 48 hrs by wound healing assay relative to control. The conditions noted are these: A549, 48 h. In kind it is functional.
For series [17], the system named is SK-OV-3. In words: Induction of apoptosis in human SKOV3 cells assessed as early apoptotic cells at 10 uM by FITC staining based flow cytometry (reference value: 0.59 to 0.97 %). In kind it is functional.
For series [18], the system named is A549. Briefly: Induction of apoptosis in human A549 cells assessed as early apoptotic cells at 5 uM by FITC staining based flow cytometry (reference value: 0.34 to 0.39 %). The series is classed as functional.
Series [19] relates to SK-OV-3. In words: Induction of apoptosis in human SKOV3 cells assessed as late apoptotic cells at 5 uM by FITC staining based flow cytometry (reference value: 2.14 to 2.83 %). In kind it is functional.
Series [20] deals with SK-OV-3. In words: Induction of apoptosis in human SKOV3 cells assessed as live cells at 5 uM by FITC staining based flow cytometry (reference value: 95.5 to 96 %). The series is classed as functional.
In series [21] the test system is SK-OV-3. Briefly: Induction of apoptosis in human SKOV3 cells assessed as live cells at 10 uM by FITC staining based flow cytometry (reference value: 95.5 to 96 %). In kind it is functional.
The subject of series [22] is SK-OV-3. Briefly: Antiinvasive activity against human SKOV3 cells at 0.6 uM after 24 hrs by crystal violet staining based transwell assay relative to control. In kind it is functional.
Series [23] relates to A549. In words: Induction of apoptosis in human A549 cells assessed as necrotic cells at 5 uM by FITC staining based flow cytometry (reference value: 0.78 to 1.49 %). In kind it is functional.
Series [24] concerns SK-OV-3. In words: Induction of apoptosis in human SKOV3 cells assessed as necrotic cells at 10 uM by FITC staining based flow cytometry (reference value: 1.74 to 1.93 %). The series is classed as functional.
Series [25] has as its system SK-OV-3. Briefly: Induction of apoptosis in human SKOV3 cells assessed as late apoptotic cells at 10 uM by FITC staining based flow cytometry (reference value: 2.14 to 2.83 %). In kind it is functional.
Series [26] relates to A549. Briefly: Induction of apoptosis in human A549 cells assessed as live cells at 5 uM by FITC staining based flow cytometry (reference value: 96 to 96.6 %). The series is classed as functional.
The subject of series [27] is A549. Briefly: Antiinvasive activity against human A549 cells at 0.6 uM after 24 hrs by crystal violet staining based transwell assay relative to control. The series is classed as functional.

Chain of Programmed cell death protein 1/Programmed cell death 1 ligand 1 (Q15116 whole entry): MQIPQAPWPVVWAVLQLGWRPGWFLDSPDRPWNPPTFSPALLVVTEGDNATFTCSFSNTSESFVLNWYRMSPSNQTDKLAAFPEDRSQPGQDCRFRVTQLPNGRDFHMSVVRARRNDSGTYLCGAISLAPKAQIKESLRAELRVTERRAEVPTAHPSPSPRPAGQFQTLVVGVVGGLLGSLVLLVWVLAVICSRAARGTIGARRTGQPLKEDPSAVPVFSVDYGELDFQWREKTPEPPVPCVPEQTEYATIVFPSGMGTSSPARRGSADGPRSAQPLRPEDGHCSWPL
Chain of Programmed cell death protein 1/Programmed cell death 1 ligand 1 (Q9NZQ7 whole entry): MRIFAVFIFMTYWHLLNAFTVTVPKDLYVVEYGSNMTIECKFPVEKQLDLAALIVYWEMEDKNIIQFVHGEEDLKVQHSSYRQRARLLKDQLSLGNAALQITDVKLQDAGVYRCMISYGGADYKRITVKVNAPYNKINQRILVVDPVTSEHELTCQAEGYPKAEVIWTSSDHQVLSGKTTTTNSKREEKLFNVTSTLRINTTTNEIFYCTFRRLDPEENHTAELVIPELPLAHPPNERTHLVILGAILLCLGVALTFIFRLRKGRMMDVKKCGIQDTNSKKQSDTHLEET

The term inhibition denotes the share of the control response that was lost under treatment. One may read the IC50 as the midpoint of a concentration-inhibition curve. On to `CCN(CC)CCCNc1cc(N2CCOCC2)nc(NCc2cccc(-c3ccccc3)c2C)n1`, for which the inhibition entry in the series with HepG2, in the series with HT-29, in the series on SK-OV-3 [5] and in the series on A549 [6] was “Active” each time. In addition, the selectivity ratio is 165 in [1], 119 in series [2], 119 in series [3] and 114 in series [4]. Besides, the half-inhibitory concentration (IC50) with MRC5 amounted to 924 µM.
For the compound `Cc1c(CNc2nc(NCCCN3CCCC3)cc(N3CCOCC3)n2)cccc1-c1ccccc1`, the inhibition entry in the series with HepG2, with HT-29, with SK-OV-3 [5] and with A549 [6] was “Active” in each case. Further, the selectivity ratio in series [1] amounted to 198; in [2], 139; in [3], 139; in [4], 103. In addition, the 50% inhibitory concentration (IC50) with NCI-H1299 was 8.1 µM; with HCC827, 7.28 µM; with A-375, 7 µM; in the series on AGS it was 4.52 µM; with MDA-MB-231, 6.75 µM; with MRC5, 1050 µM.
Take `CCN(CC)CCCNc1cc(N2CCNCC2)nc(NCc2cccc(-c3ccccc3)c2C)n1`: the inhibition entry with HepG2, in the series with HT-29, in the series with SK-OV-3 [5] and in the series with A549 [6] was “Active” in each case. For the same compound, the selectivity ratio in series [1] came to 82; in series [2], 278; in [3], 278; in series [4], 147. The IC50 with NCI-H1299 came to 6.74 µM; with HCC827, 5.27 µM; in the series on A-375 it was 4.03 µM; in series [15], 5.15 µM; in the series on AGS, 3.11 µM; with MDA-MB-231, 4.88 µM. Besides, in the series with MRC5, the half-inhibitory concentration (IC50) came to 579 µM. In addition, the Activity in the series with A549 [7] was 59.6%; in the series with A549 [8], 8.19%; with A549 [9] it was 17.7%; in the series on SK-OV-3 [10], 5%; in the series on A549 [11] it was 6.33%; with SK-OV-3 [12], 3.16%. Besides, the Activity in the series with A549 [14] was found to be 14.6%; in the series with SK-OV-3 [17] it was 11.5%; in the series with A549 [18], 4.3%; with SK-OV-3 [19], 4.08%; in the series on SK-OV-3 [20] it was 87.8%; in the series with SK-OV-3 [21], 54.5%. For the same compound, the Activity came out at 66.68% in the series on SK-OV-3 [22]; 2.24% in the series on A549 [23]; 25.7% in the series with SK-OV-3 [24]; 8.26% in the series with SK-OV-3 [25]; 87.1% in the series with A549 [26]; 70.23% with A549 [27]. For the same compound, the inhibition at 0.6 µM was found to be 68.6% in the series with SK-OV-3 [13] and 42.4% with A549 [16].
As for `Cc1c(CNc2nc(NCCCN3CCCCC3)cc(N3CCOCC3)n2)cccc1-c1ccccc1`, the inhibition result in the series on HepG2, with HT-29, with SK-OV-3 [5] and in the series with A549 [6] was “Active” throughout. For the same compound, the selectivity ratio turned out to be 295 in [1], 267 in series [2], 267 in series [3] and 185 in series [4]. For the same compound, the Activity stood at 0.85% with SK-OV-3 [10]; 1.87% in the series on SK-OV-3 [12]; 1.49% with SK-OV-3 [17]; 2.31% in the series on SK-OV-3 [19]; 95% in the series on SK-OV-3 [20]; 91.3% in the series on SK-OV-3 [21]. Moreover, the results for the Activity in the series with SK-OV-3 [22], with SK-OV-3 [24] and with SK-OV-3 [25] were 60%, 2.18% and 4.98%, respectively. The IC50 in the series on MRC5 came to 879 µM.
On to `Cc1c(CNc2nc(NCCCN3CCOCC3)cc(N3CCOCC3)n2)cccc1-c1ccccc1`, for which the 50% inhibitory concentration (IC50) in the series on NCI-H1299 was 8.1 µM; in the series with HCC827, 7.28 µM; with A-375, 7 µM; in the series on AGS, 4.52 µM; in the series on MDA-MB-231, 6.75 µM.
On to `Cc1c(CNc2nc(NCCCN(C)C)cc(N3CCOCC3)n2)cccc1-c1ccccc1`, for which the inhibition entry with HepG2, in the series with HT-29, in the series on SK-OV-3 [5] and in the series on A549 [6] was “Active” throughout. For the same compound, the selectivity ratio in series [1] stood at 213; in series [2], 129; in series [3], 129; in series [4], 112. For the same compound, the Activity is 81.7% with A549 [7]; 3.76% in the series on A549 [8]; 4.42% in the series with A549 [9]; 3.99% with A549 [11]; 18.2% with A549 [14]; 1.28% in the series with A549 [18]. Further, the Activity in the series with A549 [23] is 2.05%; with A549 [26] it was 92.7%; in the series with A549 [27], 21.81%. The inhibition at 0.6 µM came to 39.6% with SK-OV-3 [13] and 53.4% in the series on A549 [16]. For the same compound, in the series on MRC5, the half-maximal inhibitory concentration (IC50) amounted to 1050 µM.
